Biological target: T1, tCD14-His6 (truncated CD14) (Homo sapiens, UniProt P08571)
T1 sequence (P08571 20-175 limits assumed): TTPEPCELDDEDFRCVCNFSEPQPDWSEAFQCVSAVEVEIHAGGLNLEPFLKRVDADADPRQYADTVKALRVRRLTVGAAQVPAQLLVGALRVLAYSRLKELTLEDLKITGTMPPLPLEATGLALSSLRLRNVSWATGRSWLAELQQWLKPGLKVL
Type: binding

SMILES | IC50
CCCCCCCCCCCCCCOc1ccc(C[N+](C)(C)C2CCCC2)cc1OCCCCCCCCCCCCCC [compound 3, N-(3,4-bis-tetradecyloxy-benzyl)-N-cyclopentyl-N,N-dimethylammonium] | 400 nM
CCCCCCCCCCCCCCO[C@H]1[C@@H](OC)O[C@H](C[N+](C)(C)C2CCCC2)[C@@H](O)[C@@H]1OCCCCCCCCCCCCCC [compound 1, methyl 6-deoxy-6-N-dimethyl-N-cyclopentylamonium-2,3-di-O-tetradecyl-α-D-glucopyranoside] | 800 nM
CCCCCCCCCCCCCCO[C@H]1[C@@H](OC)O[C@H](CN)[C@@H](O)[C@@H]1OCCCCCCCCCCCCCC [compound 2, methyl 6-deoxy-6-amino-2,3-di-O-tetradecyl-α-D-glucopyranoside] | 2000 nM
